What all share (experiment): NCI anticancer screen, dose series, 48 h
Test [1] concerns SK-MEL-2 melanoma.
For test [2], the system named is HOP-92 NSCLC.
Test [3] deals with HOP-62 NSCLC.
The test system of test [4] is SN12C renal.
In test [5] the test system is CAKI-1 renal.
The subject of test [6] is MDA-MB-231 breast.
The test system of test [7] is DU-145 prostate.
Test [8] concerns SK-MEL-5 melanoma.
For test [9], the system named is UACC-62 melanoma.
In test [10] the test system is SF-295 CNS.

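Following 48 hours of exposure in 96-well plates, responses at five concentrations were used to interpolate endpoints linearly. TGI marks complete inhibition of growth.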

As to `COc1ccc(/C=C/c2cc(O)cc(OC)c2)cc1`, the TGI in test [1], in test [2], in [3], in test [4], in [5] and in test [6] was above 100 µM in each case. Besides, the TGI in [7], in test [8], in test [9] and in test [10] was above 100 µM each time.
On to `OC1CCCC1C(O)(C(F)(F)F)C(F)(F)F` (stereo not given), for which the TGI in test [1], in test [2], in [3], in test [4], in test [5] and in [6] was above 100 µM each time. Moreover, the TGI in test [7], in test [8], in [9] and in [10] was above 100 µM each time.
As to `S=C(N/N=C\C=N/NC(=S)N1CCCCCC1)N1CCCCCC1`, the TGI in test [1] was above 100 µM; in test [2], above 100 µM; in test [3], above 60.9 µM; in test [4], above 100 µM; in test [5], above 100 µM; in [6], above 100 µM. Besides, the TGI is above 86.2 µM in test [7], above 100 µM in test [8], above 100 µM in test [9] and above 100 µM in [10].
Regarding `COc1ccc(C2(c3ccc(OC)cc3)OC(=O)c3cccc4cccc2c34)cc1`, the TGI in test [1] is above 100 µM; in [2], above 100 µM; in [3] it was above 100 µM; in [4], above 100 µM; in test [5], 9.87 µM; in test [6], above 100 µM. Also, the TGI in test [7], in test [8], in test [9] and in test [10] was above 100 µM each time.
`CCC1(CC)C(=O)CC[C@@]2(C)C1=CC[C@H]1[C@@H]3CC[C@H](O)[C@@]3(C)CC[C@@H]12`: the TGI in test [1] is above 100 µM; in test [2], above 100 µM; in test [3], 37 µM; in test [4], 31.6 µM; in test [5], above 100 µM; in test [6], above 100 µM. The TGI in test [7] was 85.4 µM; in test [8], above 100 µM; in test [9], above 100 µM; in [10] it was 62.1 µM.
Consider `Cc1nnc2cc(C(=O)O)c3ccccc3n2c1=O`, for which the TGI in test [1], in test [2], in test [3], in test [4], in test [5] and in test [6] was above 10 µM each time. Also, the TGI in test [7], in test [8], in test [9] and in test [10] was above 10 µM throughout.
Consider `CCCCC[C@@H]1OCO[C@@]2(C)/C=C(C)/C=C/C(=O)O[C@H]([C@@H](C)[C@@H](O)[C@H](C)[C@@]3(O)C[C@@H](O[C@H]4C[C@@H](O)[C@H](O)[C@@H](C)O4)[C@H](C)[C@@H](C)O3)[C@@H](OC)/C=C/C=C(\C)C[C@@H]1[C@@H]2O` (stereo in doubt), for which the TGI in test [1] is below 0.005 µM; in test [2] it was 0.0992 µM; in test [3], 7.02 µM; in test [4], 3.49 µM; in [5], 2.69 µM; in test [6], 1.59 µM. Also, the TGI in test [7] is 7.9 µM; in [8] it was below 0.005 µM; in [9] it was below 0.005 µM; in [10], 0.0563 µM.
On to `O=C1NC(=S)N/C1=C/c1ccccc1O`, for which the TGI in test [1], in test [2], in test [3], in [4], in test [5] and in test [6] was above 100 µM throughout. The TGI in test [7], in test [8], in test [9] and in test [10] was above 100 µM throughout.
For the molecule `CC(=O)O[C@H]1C#C/C=C\C#CC[C@@H]2C(=O)N(C(=O)OC(C)(C)C)[C@@H]12`, the TGI in test [1] was above 93 µM; in test [2] it was 96.8 µM; in [3], 39.6 µM; in test [4] it was above 71.6 µM; in test [5], above 54 µM; in test [6], above 100 µM. Further, the TGI in [7] was 54.8 µM; in [8], above 100 µM; in test [9], above 100 µM; in [10], above 100 µM.

For the origin of these results see PubChem BioAssay (NCI).
